Experiments:
MTP [1] = target: T1, MTP (Mus musculus, UniProt O08601); assay: Determination of MTP activity in tissues (liver homogenates of treated mice); assay type: in vivo; conditions: chow fed C57/BL6J, IP tunicamycin, 4-24 hours
T1 construct: small pieces (0.1 g) of liver and ˜1-cm segments of proximal small intestine were homogenized; from tissue; host or cells: mouse liver (C57BL/6J; Reversa mice in some experiments); supernatant of ultracentrifuged homogenate
T1 sequence (O08601 22-894): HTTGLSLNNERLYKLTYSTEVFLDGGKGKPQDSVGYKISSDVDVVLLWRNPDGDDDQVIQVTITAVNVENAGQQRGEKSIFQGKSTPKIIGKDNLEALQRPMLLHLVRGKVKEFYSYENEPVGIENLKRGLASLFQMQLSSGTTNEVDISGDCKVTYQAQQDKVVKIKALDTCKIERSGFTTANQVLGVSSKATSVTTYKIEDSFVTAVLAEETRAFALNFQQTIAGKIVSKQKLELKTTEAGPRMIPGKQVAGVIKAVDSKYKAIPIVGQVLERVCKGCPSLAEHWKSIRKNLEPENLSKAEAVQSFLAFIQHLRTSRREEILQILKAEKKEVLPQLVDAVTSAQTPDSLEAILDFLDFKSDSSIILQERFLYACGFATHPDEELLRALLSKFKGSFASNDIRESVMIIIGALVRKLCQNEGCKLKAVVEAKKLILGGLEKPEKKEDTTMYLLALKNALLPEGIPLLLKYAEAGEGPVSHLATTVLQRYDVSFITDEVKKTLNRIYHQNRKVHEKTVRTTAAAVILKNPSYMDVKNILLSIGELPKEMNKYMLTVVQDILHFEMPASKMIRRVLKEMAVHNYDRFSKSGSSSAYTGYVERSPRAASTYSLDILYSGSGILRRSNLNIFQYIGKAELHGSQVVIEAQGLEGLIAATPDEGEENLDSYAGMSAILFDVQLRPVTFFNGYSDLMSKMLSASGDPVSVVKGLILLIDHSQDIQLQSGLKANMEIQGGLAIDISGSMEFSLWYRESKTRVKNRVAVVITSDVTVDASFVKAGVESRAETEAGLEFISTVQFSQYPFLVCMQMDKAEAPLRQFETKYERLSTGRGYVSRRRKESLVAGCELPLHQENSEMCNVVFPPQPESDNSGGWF
T1 sequence (P09103 21-509 partner limits assumed): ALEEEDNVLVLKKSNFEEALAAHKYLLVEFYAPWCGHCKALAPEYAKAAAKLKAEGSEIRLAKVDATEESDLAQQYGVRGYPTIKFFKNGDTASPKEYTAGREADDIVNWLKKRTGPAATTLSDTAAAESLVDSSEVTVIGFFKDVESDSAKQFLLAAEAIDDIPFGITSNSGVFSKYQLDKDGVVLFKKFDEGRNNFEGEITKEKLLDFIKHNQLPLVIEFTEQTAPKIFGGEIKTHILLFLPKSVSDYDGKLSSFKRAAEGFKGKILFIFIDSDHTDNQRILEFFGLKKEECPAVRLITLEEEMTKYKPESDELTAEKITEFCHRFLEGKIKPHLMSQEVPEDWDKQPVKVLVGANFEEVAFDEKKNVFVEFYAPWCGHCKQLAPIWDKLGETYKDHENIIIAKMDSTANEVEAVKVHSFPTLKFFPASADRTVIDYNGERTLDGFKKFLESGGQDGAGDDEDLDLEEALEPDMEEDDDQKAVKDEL
Procedure: After extensive washes with ice-cold PBS, small pieces (0.1 g) of liver and ˜1-cm segments of proximal small intestine were homogenized with 1 ml of ice-cold 1 mM Tris-HCl, pH 7.6, 1 mM EGTA, and 1 mM MgCl2 buffer in a glass homogenizer. The homogenates were centrifuged (SW55 Ti rotor, 50,000 rpm, 10° C., 1 h), and supernatants were used for MTP assay as described before (41; 42) using a kit (Chylos, Inc.).

[2] = system: hepatic mRNA of ER stress, inflammation and lipid metabolism genes; assay: Hepatic mRNA quantification (qPCR, XBP-1 splicing) in treated mice; assay type: in vivo; conditions: liver
From the text: FIGS. 6a and 6b. Liver samples from FIG. 16 were used to isolate total mRNA and to quantify expression of different candidate genes. Statistical analyses were as described in FIGS. 16-17.
FIGS. 9a and 9b. C57B/6J mice were fed a western diet for 8 weeks and then treated with MTP inhibitor and other indicated compounds for 8 days as described in FIG. 16. Liver samples were used to isolate mRNA and to quantify mRNA levels with different candidate genes. Stars on MTPi group represent comparison with the control group.
FIG. 16. Age matched wildtype C57/BL6J animals chow fed animals were treated with DMSO (control) or MTP inhibitor (MTPi) for one week. Age matched wildtype C57/BL6J were fed WD for one month and were administered MTPi, Lovastatin, (Lova), Pioglitazone (Pio) or 4-phenylbutyric acid (PBA) every day for one week. All drugs were administered by oral gavage. Animals were sacrificed on day 7 and livers were harvested. mRNA was extracted and subjected to qPCR analysis. * represent comparison DMSO control; # represent comparisons to WD control; @ represent comparisons to WD MTP inhibitor treated animals.
mRNA quantifications and primers used: Total RNA from tissues and cells were isolated using TriZol™ (Invitrogen). The purity and integrity of RNA were assessed by the A260/A280 ratio and 1% agarose gel electrophoresis, respectively. Only the RNAs with ratios more than 1.7 were used for cDNA synthesis. The first strand cDNA was synthesized using Omniscript RT (Qiagen) kit. Briefly, 2 μg of total RNA, 1 μM random primers (Invitrogen), 0.5 mM dNTP solution, and 0.5 U/μl Omniscript Reverse Transcriptase were incubated at 37° C. for 1 h in 20 μl of RT buffer and the reaction was terminated by incubating at 95° C. for 5 minutes. Each reaction of quantitative RT-PCR was carried out in a volume of 20 μl consisting of 5 μl cDNA sample (1:100 dilution of the first strand cDNA sample) and 15 μl of PCR master mix solution containing 1×PCR reaction buffer, 6 mM MgCl2, 200 nM primer pair, 0.025 U/μl HotStar Gold™ DNA polymerase, 200 μM dNTP solution, and 0.3 μl SYBR Green I solution (gPCR™ Core Kit for SYBR Green I, Eurogentec). The PCR was carried out by incubating the reaction mixture first for 10 minute at 95° C. followed by 40 cycles of 15 sec incubations at 95° C. and 1 min at 60° C. in the ABI 7000 SDS PCR machine. The data were analyzed using ΔΔCT method according to manufacturer's instruction and presented as arbitrary units. The primers used in this study were designed with the PrimerExpress 3.0 software (Applied Biosystems, CA) and are presented as Table 1.

C57Bl/6J mice = assay: ER stress induction by tunicamycin in mice: plasma AST/ALT and lipids; assay type: in vivo
Procedure: FIG. 10. Effect of tunicamycin on plasma ALT/AST levels. W iid type mice were injected intraperitoneally with 1 mg/kg tunicamycin. Plasma were collected after 48 h and used to measure enzyme activities.
FIG. 17. Age matched wildtype C57/BL6J animals chow fed animals were injected via IP with either PBS or Tunicamycin. Animals were sacrificed at 4, 8, 12 and 24 hours. Plasma and livers were collected and mRNA extracted from liver samples.
To determine whether ER stress itself would increase plasma AST/ALT, C57Bl/6J mice were injected with tunicamycin (1 mg/kg) as described before. Plasma AST/ALT levels were measured after 36 h (FIG. 10). […] We will be measuring cellular lipid to determine whether tunicamycin affects hepatic lipid levels as well as mRNA and protein levels of different candidate genes involved in ER stress pathway.
C57BL/6J Black 6 mice (stock number 000664) were obtained from Jackson Laboratory and used for chow fed and western diet fed experiments. MTP inhibitor (BMS […]) (1 mg/kg/day), Lovastatin, Pioglitazone (Toronto Research Chemicals P471000) (25 mg/kg/day) and 4-phenylbutyric acid (Calbiochem 820986) (1 g/kg/day) were administered by oral gavage. Chow fed animals were treated for one week with either DMSO or MTP inhibitor. Western diet fed animals were fed DMSO, MTP inhibitor, Pioglitazone, MTP inhibitor+Pioglitazone, Lovastatin, MTP inhibitor+Lovastatin, 4-phenylbutyric acid, and MTP inhibitor+4-phenylbutyric acid. Chow fed animals were also injected with either PBS or Tunicamycin and animals were sacrificed at 4, 8, 12 and 24 hours.

guinea pigs = conditions: cited from earlier work
MTP [3] = target: MTP (Homo sapiens, UniProt P55157); conditions: cited from earlier work
Sequence of MTP (Homo sapiens, UniProt P55157) (P55157 19-894, species assumed): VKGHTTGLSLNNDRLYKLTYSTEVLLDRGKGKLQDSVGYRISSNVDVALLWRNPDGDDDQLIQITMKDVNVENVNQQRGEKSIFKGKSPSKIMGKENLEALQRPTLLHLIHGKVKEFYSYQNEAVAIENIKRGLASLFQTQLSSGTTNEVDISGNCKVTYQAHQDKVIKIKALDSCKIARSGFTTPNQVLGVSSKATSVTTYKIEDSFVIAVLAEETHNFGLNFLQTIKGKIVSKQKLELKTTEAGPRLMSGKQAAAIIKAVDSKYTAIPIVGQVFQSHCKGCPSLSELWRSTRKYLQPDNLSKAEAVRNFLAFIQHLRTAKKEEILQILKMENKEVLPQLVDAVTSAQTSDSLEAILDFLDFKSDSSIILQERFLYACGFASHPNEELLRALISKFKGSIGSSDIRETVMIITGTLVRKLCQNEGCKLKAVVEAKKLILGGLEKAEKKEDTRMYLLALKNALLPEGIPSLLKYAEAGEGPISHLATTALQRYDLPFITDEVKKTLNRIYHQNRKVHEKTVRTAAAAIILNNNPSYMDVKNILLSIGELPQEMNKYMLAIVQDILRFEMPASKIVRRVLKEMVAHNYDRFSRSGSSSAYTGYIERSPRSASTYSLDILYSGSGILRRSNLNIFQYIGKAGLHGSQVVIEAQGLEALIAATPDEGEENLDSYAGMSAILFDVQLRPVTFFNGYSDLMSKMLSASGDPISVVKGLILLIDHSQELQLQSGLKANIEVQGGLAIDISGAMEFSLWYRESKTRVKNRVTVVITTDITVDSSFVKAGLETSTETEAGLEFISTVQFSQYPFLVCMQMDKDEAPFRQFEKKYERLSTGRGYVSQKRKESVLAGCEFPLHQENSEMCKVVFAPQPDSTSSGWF
Sequence of MTP (Homo sapiens, UniProt P55157) (P07237 18-508 partner, species assumed): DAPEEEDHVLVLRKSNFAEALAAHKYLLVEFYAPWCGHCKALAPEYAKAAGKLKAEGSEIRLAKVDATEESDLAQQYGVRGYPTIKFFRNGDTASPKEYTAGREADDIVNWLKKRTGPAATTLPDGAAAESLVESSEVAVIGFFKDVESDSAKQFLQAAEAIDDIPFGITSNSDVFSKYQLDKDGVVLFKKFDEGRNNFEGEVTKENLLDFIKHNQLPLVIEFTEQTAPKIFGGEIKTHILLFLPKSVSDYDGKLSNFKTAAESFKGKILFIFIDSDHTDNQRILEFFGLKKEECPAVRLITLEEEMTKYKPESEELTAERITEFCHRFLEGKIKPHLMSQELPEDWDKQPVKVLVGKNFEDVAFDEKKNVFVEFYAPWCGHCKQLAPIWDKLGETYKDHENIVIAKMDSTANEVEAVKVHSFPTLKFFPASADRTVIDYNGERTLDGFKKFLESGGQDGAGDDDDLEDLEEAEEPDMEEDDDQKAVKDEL

[4] = in vivo; cited from earlier work
[5] = chow fed C57/BL6J, IP, 4-24 hours

For tunicamycin, which “hepatic MTP activity” value (MTP [1]) is on record?
The value was “no effect”.

And the XBP-1 splicing assay ([2]; tunicamycin IP)?
Its XBP-1 splicing assay is “revealed the spliced form of XBP-1”.

What about the “mRNA expression of ER stress markers Bip, Ire1α and CHOP” value ([2]; tunicamycin IP time course) of the same compound?
The value was “elevations”.

What about the “Plasma AST/ALT levels” value (C57Bl/6J mice; 1 mg/kg injected, measured after 36 h) of the same compound?
Its value is “significantly enhanced”.

What about the “plasma AST/ALT vs PBS injected animals” value (C57Bl/6J mice; 24 hours after injection) of the same compound?
Its value is “still significantly elevated”.

And the “increase of plasma AST/ALT” value (C57Bl/6J mice; acute induction of ER stress)?
The value was 2.5 fold.

And the “time of peak plasma AST/ALT levels after injection” value (C57Bl/6J mice; chow fed C57/BL6J, IP)?
The value was 8 h.

And the hepatic lipids (C57Bl/6J mice; [5])?
Its hepatic lipids is “increased”.

What about the “plasma cholesterol and triglycerides” value (C57Bl/6J mice; [5]) of the same compound?
Its value is “lowered”.

What about the plasma transaminases (C57Bl/6J mice; chow fed C57/BL6J, IP, vs PBS) of the same compound?
Its plasma transaminases is “higher”.

Which hepatic triglyceride (guinea pigs) does the source give for `CCOC(=O)C(COC(=O)Cc1ccc(NC(=O)c2ccccc2-c2ccc(C(F)(F)F)cc2)c(C(=O)N(C)C)c1)(C(=O)OCC)c1ccccc1` [JTT-130] here?
Its hepatic triglyceride is “without increasing”.

What about the “plasma triglyceride and LDL cholesterol” value (guinea pigs) of the same compound?
The value was “lower”.

Which results are given for `O=C1c2c(O)cc(O)cc2OC(c2ccc(O)c(O)c2)C1O` (stereo not drawn) [Taxifolin]?
cellular lipids (MTP [3]): without increasing; triglyceride synthesis and MTP activity (MTP [3]): inhibits

With `COc1cccc(C(=O)Nc2ccc3c(c2)CCN(C(=O)Oc2ccccc2)C3)c1-c1ccc(C(F)(F)F)cc1` [SLx-4090] as the compound, how does the plasma lipids [4] read?
The plasma lipids was “lower”.
